According to patent publication US20050267014A1, “Pharmaceutical composition comprising factor VII polypeptides and tranexamic acid” (Novo Nordisk HealthCare A/G, priority 2001, published 2005):

Tests used:
[1] = test system: clots formed by normal human plasma; experiment: Clot lysis assay, normal human plasma diluted 10-fold, turbidity at 650 nm; type: biochemical; conditions: in the presence of 10 nM FVIIa
Procedure: Clot lysis assay: Normal human plasma diluted 10-fold with buffer (20 mM HEPES, 150 mM NaCl, 5 mM CaCl, pH 7.4) containing lapidated recombinant tissue factor (Innovin, Dade Behring, 2000-fold dilution), rFVIIa (Novo Nordisk A/S Bagsvaerd, Denmark, various concentrations) and t-PA (American Diagnostica, 8 nM) was added to 96-well ELISA plates and turbidity at 650 nm was measured over time at room temperature. Where indicated, Tranexamic acid (Sigma, various concentrations) was included.

[2] = test system: whole human blood; experiment: Whole blood rotation thrombelastography (ROTEG) clot strength; conditions: tranexamic acid in addition to FVIIa, tPA 2 nM

Structure (SMILES): NC[C@H]1CC[C@H](C(=O)O)CC1 [Tranexamic acid]
- Tranexamic acid concentration at which prolongation of clot lysis time was optimal [1]: 1 µM
- effect on clot lysis time ([1]; t-PA 8 nM): further prolongation of the clot lysis time
- mechanical strength of the clot [2]: increased the mechanical strength of the clot
- overall survival time of the clot [2]: increased
